Entries after “also recorded” stand apart in the source; their conditions may differ.
Columns and labels:
p38 = p38 activation by phospho-p38 immune staining of midgut; format: in vivo, Drosophila; settings: uracil 20 nM for 2 hours
Protocol: To examine uracil-induced p38 activation, a 5% sucrose solution containing 20 nM of uracil was orally administered to genetically different adult Drosophila (5 to 6 days old) for 2 hours. Midguts were dissected in PBS and fixed with 4% paraformaldehyde for 15 minutes. The midguts were washed three times with PBS containing 0.1% of Triton X-100 for 5 minutes and were cultured in the above solution with additional 5% cow blood serum albumin for 1 hour. Next, the sample was cultured with additional phospho-specific anti-p38 antibody (1:500 dilution; Millipore, Milford, Mass., USA) at 4° C. for 16 hours. The sample was washed five times with PBS containing 0.1% Triton X-100 for 5 minutes and cultured at room temperature for 20 minutes after adding secondary antibodies (1:500 dilution; Alexa Fluor 568 goat anti-rabbit IgG; Invitrogen, Carlsbad, Calif., USA). After washing the sample three times with PBS containing 0.1% Triton X-100 for 5 minutes, the sample was mounted with mounting buffer solution (Vectorshield, Vector Laboratories Inc., Burlingame, Calif., USA) and was analyzed by LSM 700 confocal microscopy (Carl Zeiss, Oberkochen, Germany)

PLCβ = PLCβ position in cell membrane (PLCβ-RFP flies); format: in vivo, Drosophila; settings: uracil 20 nM for 2 hours
Protocol: Genetically modified Drosophila containing PLCβ-RFP (UAS-PLCβ-RFP; Da-GAL4) were used to monitor activated PLCβ generation which is targeted in the membrane as disclosed in the previous research (Ha et al., Nat Immunol 10, pp. 949-957, 2009). A 5% sucrose solution containing 20 nM of uracil was ingested by Drosophila (5 to 6 days old) for 2 hours.

DUOX = test: In vivo ROS detection in gut epithelia (HOCl-specific R19S staining, ratio of ROS-positive guts); set-up: species or system Drosophila
From the text: R19S, a recently developed HOCl-specific rhodamine-based dye, was used in this experiment (Chen et al., Chem Commun (Camb) 47, pp. 4373-4375, 2011). R19S was purchased from Futurechem (Seoul, South Korea). […]
Furthermore, to measure the basal level of ROS in germ-free animals, Drosophila monoassociated with each bacterium (C. intestini, A. pomorum, L. plantarum, G. morbifer, G. morbifer-carA::Tn5, L. brevis, or L. brevisΔcarA) were experimented with as disclosed above. A 5% sucrose solution containing 10 μM of R19S was orally administered to the monoassociated Drosophila (13 days old) for 90 minutes.
Following the R19S ingestion, the midguts were dissected and fixed with 4% formaldehyde. The level of HOCl (ROS level) was visualized by LSM700 confocal microscopy (Carl Zeiss).
For all of the experiments, R19S-positive guts in each animal group (n=approx. 20) were measured by each independent experiment, and data was indicated by at least three repeated and independent experiments. The number of R19S-positive guts in regard to the total numbers of gut samples was indicated as the ratio of ROS-positive guts.

germ-free Drosophila = test: Survival duration of germ-free flies on uracil-containing media; format: in vivo
From the text: Control Drosophila and PLCβ-DUOX pathway-mediated mutated Drosophila (PLCβ^−/− and DUOX-RNAi) were used in the experiment. It is known that PLCβ^−/− and DUOX-RNAi flies have a short life span under conventional rearing conditions but a normal life span under germ-free conditions (Ha et al., Nat Immunol 10, pp. 949-957, 2009). Therefore, to examine the effects of uracil on the survival rate of genetically different Drosophila, germ-free animals were used. Germ-free animals were reared in germ-free media containing 1 nM of uracil. Germ-free animals were moved to a newly sterilized bottle that had germ-free media containing uracil every 4 or 5 days. Drosophila remained germ-free throughout the entire experimental processes.

E. carotovora-pyrE::Tn5 = test: Bacterial persistence in the midgut (CFU); format: in vivo, Erwinia carotovora; settings: coingestion of 1 nM uracil with E. carotovora-pyrE::Tn5; CFU 6 hours after ingestion
Protocol: To measure gut sustainability of E. carotovora strains (E. carotovora, E. carotovora-pyrE::Tn5, and E. carotovora-pyrE::Tn5-pyrE), a 5% sucrose solution containing approx. 10^10 cells of E. carotovora strains were orally administered to female adult Drosophila (5 to 6 days old) for 2 hours. Midguts were dissected at 6 hours after ingestion. Midguts, posterior guts, and crops of which the surfaces were sterilized were homogenized and diluted accordingly. These were smeared on a Luria-Bertani agar plate, and some of colony-forming units (CFUs) were obtained from each midgut. During the recovery experiment, the coingestion of E. carotovora-pyrE::Tn5 (+uracil) and 1 nM of uracil or the expression of an E. carotovora-pyrE::Tn5 strain, which was genetically recovered by the expression of functional pyrE genes (+pyrE), was utilized.

IMD pathway = test: Gut IMD pathway activation (Cec expression, qPCR); format: in vivo, Drosophila; settings: uracil 20 nM, 4 hours
Protocol: Fluorescent RT-PCR was conducted to quantify gene expression and double-stranded DNA dye and SYBR green (Perkin Elmer, Waltham, Mass., USA) were used. To detect target gene trascriptomes, Cecropin (Sense, 5′-ATGAACTTCTACAACATCTTCG-3′ (SEQ ID NO: 5); Antisense, 5′-GGCAGTTGCGGCGACATTGGCG-3′ (SEQ ID NO: 6)), Diptericin (Sense, 5′-GGCTTATCCGATGCCCGACG-3′ (SEQ ID NO: 7); Antisense, 5′-TCTGTAGGTGTAGGTGCTTCCC-3′ (SEQ ID NO: 8)), and DUOX (Sense, 5′-GCTGCACGCCAACCACAAGAGACT-3′ (SEQ ID NO: 9); Antisense, 5′-CACGCGCAGCAGGATGTAAGGTTT-3′ (SEQ ID NO: 10)) were used, and as a control group, Rp49 (Sense, 5′-AGATCGTGAAGAAGCGCACCAAG-3′ (SEQ ID NO: 11); Antisense, 5′-CACCAGGAACTTCTTGAATCCGG-3′ (SEQ ID NO: 12)) was used. SYBR green analysis was conducted by an ABI PRISM 7700 system (PE Applied Biosystems, Foster City, Calif., USA) according to the manufacturer's instructions. All of the samples were repeated three times and analyzed, and a detected amount of mRNA was normalized with mRNA in the control group. Normalized data was used to quantify the relative amount of mRNA according to cycling threshold analysis. Targeted gene expression was expressed as the relative amount of expression.

O=c1cc[nH]c(=O)[nH]1 [uracil]
p38 MAPK activation (p38): p38 MAPK activation
PLC activation (membrane localization of active PLC) (PLCβ): PLC activation
infection-induced gut ROS after coingestion of uracil with URA− strain (DUOX; E. carotovora-pyrE::Tn5 plus uracil): normal level of infection-induced ROS
lowest concentration inducing gut ROS generation (DUOX; dose-dependent analysis, oral ingestion, adult Drosophila): ≥ 10 pM
ROS-inducing ability / DUOX activation (DUOX; nucleobases and pyrimidine analogs, 20 nM each, ingestion for 15 minutes): capable of activating DUOX
gut ROS generation (DUOX; uracil 20 nM for 1.5 hours, PLCβ-DUOX signaling-dependent (absent in DUOX-RNAi, PLCβ−/−)): generation of large amounts of gut ROS
requirement of Gαq for uracil-induced ROS generation (DUOX; uracil 20 nM for 1.5 hours, control vs Gαq−/− flies): required
uracil-induced ROS generation in presence of commensal bacteria in the gut (DUOX; uracil 20 nM, 1.5 hours, GF flies monoassociated with C. intestini, A. pomorum or L. plantarum): could not inhibit the ROS-generating ability of uracil
host lethality / mortality after long-term ingestion of uracil (germ-free Drosophila; germ-free control flies, uracil-containing vs normal food): lethality of control flies in a dose-dependent manner; also recorded: statistically significant difference in mortality
uracil-induced host pathology in PLCβ−/− or DUOX-RNAi flies (germ-free Drosophila; in vivo): completely absent
prolonged midgut persistence of URA− pathogens (E. carotovora-pyrE::Tn5): abolished
gut IMD pathway activation leading to AMP production (IMD pathway): unable to activate the gut IMD pathway

Source: patent US10092566B2, “Composition for controlling a gut immunity and use thereof” (SEOUL NATIONAL UNIVERSITY R&DB FOUNDATION, priority 2013, dated 2018)
